Assay results from ChEMBL document CHEMBL1145633, “Inhibitors of the tyrosine kinase EphB4. Part 1: Structure-based design and optimization of a series of 2,4-bis-anilinopyrimidines” (Bioorg Med Chem Lett, 2008).
Values after ≈ are worked out from the molar mass of the structure shown.

What was measured:
Ephrin type-B receptor 4 = target: T1, Ephrin type-B receptor 4 (Homo sapiens, UniProt P54760); test: Inhibition of EphB4
T1 sequence (P54760 whole entry): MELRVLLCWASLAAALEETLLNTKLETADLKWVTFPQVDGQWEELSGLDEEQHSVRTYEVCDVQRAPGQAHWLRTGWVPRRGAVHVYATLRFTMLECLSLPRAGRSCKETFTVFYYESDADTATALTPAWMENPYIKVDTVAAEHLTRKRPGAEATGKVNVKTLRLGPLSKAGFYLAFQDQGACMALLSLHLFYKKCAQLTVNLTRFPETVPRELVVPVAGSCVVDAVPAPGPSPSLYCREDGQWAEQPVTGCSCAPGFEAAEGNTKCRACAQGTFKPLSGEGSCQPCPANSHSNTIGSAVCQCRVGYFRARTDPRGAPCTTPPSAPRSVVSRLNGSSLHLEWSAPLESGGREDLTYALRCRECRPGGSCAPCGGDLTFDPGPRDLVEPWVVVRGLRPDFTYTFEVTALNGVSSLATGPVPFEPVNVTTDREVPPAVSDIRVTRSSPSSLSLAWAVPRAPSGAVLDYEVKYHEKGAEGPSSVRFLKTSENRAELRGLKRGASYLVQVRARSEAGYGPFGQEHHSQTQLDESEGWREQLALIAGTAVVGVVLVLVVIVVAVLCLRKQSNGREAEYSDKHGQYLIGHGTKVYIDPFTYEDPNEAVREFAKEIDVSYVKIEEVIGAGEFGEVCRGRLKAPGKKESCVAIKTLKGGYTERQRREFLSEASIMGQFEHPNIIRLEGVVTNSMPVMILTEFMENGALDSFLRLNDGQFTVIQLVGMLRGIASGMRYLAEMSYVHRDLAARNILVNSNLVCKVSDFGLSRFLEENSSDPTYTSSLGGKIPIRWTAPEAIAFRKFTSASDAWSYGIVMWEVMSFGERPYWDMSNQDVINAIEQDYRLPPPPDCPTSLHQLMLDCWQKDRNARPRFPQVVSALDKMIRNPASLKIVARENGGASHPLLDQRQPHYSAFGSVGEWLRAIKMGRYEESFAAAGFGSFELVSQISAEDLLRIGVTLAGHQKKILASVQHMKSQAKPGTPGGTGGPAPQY

Ephrin type-B receptor 2 = target: T2, Ephrin type-B receptor 2 (Homo sapiens, UniProt P29323); test: Inhibition of EphB2
T2 sequence (P29323 whole entry): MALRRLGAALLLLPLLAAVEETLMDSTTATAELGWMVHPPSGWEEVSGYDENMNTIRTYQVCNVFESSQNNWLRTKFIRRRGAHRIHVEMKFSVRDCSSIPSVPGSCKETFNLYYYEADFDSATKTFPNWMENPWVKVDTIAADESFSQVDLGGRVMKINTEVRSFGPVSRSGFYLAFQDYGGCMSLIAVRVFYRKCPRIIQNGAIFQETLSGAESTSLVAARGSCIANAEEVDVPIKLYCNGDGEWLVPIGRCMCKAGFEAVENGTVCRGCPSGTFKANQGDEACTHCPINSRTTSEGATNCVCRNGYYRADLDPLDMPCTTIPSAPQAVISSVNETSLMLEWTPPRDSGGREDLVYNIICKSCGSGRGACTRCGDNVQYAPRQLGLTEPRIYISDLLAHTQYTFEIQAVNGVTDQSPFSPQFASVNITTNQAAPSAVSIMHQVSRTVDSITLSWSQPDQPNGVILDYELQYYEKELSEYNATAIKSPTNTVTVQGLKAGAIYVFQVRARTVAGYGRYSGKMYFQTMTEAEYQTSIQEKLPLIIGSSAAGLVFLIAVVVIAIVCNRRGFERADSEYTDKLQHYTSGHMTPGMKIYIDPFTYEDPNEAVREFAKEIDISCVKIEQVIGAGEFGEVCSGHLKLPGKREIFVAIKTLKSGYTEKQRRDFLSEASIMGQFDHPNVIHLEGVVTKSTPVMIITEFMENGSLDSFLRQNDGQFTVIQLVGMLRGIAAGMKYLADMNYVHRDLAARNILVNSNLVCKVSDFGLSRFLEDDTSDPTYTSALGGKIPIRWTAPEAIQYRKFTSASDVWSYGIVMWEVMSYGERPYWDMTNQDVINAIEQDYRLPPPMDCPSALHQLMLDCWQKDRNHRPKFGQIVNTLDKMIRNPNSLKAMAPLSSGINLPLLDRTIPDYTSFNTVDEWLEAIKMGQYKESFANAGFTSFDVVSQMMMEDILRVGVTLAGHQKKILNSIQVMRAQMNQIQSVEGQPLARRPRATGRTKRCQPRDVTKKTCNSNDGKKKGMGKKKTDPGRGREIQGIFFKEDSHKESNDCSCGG

[1] = target: Proto-oncogene tyrosine-protein kinase Src (Homo sapiens, UniProt P12931); test: Inhibition of Src
Sequence of Proto-oncogene tyrosine-protein kinase Src (P12931 2-536 limits assumed): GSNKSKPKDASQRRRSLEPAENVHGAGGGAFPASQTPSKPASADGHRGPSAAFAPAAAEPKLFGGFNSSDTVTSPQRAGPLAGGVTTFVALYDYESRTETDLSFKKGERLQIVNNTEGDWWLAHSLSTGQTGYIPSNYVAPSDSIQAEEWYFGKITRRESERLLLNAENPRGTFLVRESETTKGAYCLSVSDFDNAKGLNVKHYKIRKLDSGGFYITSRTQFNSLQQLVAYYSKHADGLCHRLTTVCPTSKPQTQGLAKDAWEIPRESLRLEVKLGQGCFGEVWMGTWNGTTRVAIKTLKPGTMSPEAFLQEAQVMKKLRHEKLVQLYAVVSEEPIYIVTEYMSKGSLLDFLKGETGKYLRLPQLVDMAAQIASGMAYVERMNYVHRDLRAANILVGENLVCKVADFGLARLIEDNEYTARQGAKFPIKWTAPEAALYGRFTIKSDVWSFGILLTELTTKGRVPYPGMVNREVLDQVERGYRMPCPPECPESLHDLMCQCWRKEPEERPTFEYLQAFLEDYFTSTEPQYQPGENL

[2] = target: Tyrosine-protein kinase CSK (Homo sapiens, UniProt P41240); test: Inhibition of CSK
Sequence of Tyrosine-protein kinase CSK (P41240 whole entry): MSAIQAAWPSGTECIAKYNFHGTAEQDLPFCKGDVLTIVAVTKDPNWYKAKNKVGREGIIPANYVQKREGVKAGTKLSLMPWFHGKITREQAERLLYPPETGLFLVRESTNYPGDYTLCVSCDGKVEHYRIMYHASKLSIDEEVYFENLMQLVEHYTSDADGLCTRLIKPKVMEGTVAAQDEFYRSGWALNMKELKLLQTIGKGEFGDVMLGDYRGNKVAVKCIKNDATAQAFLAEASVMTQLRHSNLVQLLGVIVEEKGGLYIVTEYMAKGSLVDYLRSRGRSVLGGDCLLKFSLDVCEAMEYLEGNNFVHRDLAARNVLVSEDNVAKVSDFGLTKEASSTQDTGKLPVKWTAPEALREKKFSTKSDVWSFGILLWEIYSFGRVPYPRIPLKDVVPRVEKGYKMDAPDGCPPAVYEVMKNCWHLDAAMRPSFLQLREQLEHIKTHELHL

[3] = target: Cyclin-dependent kinase 2 (Homo sapiens, UniProt P24941); test: Inhibition of CDK2
Focal adhesion kinase 1 = Focal adhesion kinase 1 (Homo sapiens, UniProt Q05397); test: Inhibition of FAK
[4] = target: T3, Tyrosine-protein kinase JAK3 (Homo sapiens, UniProt P52333); test: Inhibition of JAK3
T3 sequence (P52333 whole entry): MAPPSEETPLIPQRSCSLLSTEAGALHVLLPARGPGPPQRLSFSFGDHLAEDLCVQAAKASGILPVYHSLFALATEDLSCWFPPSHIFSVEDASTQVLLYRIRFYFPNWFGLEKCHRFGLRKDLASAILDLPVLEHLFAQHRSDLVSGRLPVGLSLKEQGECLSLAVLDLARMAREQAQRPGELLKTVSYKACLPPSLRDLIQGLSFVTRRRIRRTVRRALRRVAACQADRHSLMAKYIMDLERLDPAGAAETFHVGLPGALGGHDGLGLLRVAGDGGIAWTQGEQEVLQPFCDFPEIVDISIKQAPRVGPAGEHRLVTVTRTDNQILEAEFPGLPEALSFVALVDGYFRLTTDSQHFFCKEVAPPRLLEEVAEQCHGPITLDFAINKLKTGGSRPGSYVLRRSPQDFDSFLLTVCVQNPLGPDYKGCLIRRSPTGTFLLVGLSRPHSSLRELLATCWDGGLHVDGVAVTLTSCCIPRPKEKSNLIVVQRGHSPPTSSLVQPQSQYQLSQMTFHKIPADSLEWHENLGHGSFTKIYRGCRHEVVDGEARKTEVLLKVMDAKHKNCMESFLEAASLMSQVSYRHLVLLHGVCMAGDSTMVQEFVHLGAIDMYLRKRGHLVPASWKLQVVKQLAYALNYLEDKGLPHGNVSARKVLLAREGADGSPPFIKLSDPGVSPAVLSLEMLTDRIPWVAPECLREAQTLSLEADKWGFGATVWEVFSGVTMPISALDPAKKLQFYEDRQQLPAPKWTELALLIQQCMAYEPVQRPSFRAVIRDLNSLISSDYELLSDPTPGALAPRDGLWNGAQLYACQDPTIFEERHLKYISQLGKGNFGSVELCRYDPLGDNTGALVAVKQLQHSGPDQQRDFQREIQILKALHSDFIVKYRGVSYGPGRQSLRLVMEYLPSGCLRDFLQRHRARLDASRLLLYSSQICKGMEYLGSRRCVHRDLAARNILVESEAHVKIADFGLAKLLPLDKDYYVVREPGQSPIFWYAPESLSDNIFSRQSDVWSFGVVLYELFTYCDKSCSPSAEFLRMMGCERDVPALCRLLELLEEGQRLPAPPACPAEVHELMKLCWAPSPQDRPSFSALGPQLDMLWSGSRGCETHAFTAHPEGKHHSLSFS

[5] = Inhibition of p38
[6] = target: Insulin-like growth factor 1 receptor (Homo sapiens, UniProt P08069); test: Inhibition of IGF
Sequence of Insulin-like growth factor 1 receptor (P08069 31-736 limits assumed): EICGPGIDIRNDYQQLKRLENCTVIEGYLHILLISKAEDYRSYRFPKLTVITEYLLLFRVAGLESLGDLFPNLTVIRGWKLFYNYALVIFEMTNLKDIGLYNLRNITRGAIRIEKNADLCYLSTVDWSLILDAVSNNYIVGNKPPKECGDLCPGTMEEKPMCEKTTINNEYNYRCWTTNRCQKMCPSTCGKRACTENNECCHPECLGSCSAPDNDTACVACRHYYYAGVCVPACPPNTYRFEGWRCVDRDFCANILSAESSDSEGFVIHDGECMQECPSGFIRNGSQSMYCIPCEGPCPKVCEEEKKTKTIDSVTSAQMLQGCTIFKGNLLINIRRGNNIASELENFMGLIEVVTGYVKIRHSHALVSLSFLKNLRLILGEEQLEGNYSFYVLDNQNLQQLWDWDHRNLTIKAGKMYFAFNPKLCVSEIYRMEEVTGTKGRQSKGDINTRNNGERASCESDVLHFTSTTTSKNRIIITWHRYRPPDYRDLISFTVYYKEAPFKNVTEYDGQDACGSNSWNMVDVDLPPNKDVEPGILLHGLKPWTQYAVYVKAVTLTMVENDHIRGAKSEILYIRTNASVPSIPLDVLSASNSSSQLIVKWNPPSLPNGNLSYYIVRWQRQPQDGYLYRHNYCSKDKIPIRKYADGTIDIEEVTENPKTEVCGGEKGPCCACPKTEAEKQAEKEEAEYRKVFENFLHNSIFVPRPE
Sequence of Insulin-like growth factor 1 receptor (P08069 741-1367 limits assumed): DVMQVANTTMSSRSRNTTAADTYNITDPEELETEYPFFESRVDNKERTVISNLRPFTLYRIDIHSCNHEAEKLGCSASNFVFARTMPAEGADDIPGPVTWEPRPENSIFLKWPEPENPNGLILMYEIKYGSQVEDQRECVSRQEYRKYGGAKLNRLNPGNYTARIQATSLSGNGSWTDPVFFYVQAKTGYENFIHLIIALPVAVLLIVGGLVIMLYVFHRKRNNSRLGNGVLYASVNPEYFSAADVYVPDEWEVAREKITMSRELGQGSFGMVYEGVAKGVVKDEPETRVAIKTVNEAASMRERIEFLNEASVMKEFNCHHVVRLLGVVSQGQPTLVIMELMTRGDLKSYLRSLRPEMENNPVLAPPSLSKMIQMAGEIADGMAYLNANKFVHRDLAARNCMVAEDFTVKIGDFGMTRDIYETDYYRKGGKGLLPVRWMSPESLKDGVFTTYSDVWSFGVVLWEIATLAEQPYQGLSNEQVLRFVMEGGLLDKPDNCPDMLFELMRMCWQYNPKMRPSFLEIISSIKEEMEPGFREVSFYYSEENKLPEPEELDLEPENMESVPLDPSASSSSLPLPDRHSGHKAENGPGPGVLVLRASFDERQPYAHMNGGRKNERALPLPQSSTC

[7] = target: T4, Tyrosine-protein kinase ZAP-70 (Homo sapiens, UniProt P43403); test: Inhibition of ZAP70
T4 sequence (P43403 whole entry): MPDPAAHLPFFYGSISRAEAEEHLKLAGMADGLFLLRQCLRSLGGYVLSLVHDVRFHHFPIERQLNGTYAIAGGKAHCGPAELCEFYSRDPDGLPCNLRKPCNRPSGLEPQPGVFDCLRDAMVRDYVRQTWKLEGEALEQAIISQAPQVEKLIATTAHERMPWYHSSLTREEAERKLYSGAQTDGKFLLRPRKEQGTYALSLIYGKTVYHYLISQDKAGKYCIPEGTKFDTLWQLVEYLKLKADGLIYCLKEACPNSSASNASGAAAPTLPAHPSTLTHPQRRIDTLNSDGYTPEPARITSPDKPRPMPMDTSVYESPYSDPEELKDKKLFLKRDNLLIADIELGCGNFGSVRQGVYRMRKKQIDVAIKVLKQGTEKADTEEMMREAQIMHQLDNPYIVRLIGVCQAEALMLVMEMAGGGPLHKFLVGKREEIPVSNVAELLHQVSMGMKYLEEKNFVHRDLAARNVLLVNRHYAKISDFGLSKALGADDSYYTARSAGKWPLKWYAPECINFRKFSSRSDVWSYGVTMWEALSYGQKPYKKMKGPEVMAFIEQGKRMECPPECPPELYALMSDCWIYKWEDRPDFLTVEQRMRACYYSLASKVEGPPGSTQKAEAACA

[8] = target: Vascular endothelial growth factor receptor 2 (Homo sapiens, UniProt P35968); test: Inhibition of KDR
Sequence of Vascular endothelial growth factor receptor 2 (P35968 whole entry): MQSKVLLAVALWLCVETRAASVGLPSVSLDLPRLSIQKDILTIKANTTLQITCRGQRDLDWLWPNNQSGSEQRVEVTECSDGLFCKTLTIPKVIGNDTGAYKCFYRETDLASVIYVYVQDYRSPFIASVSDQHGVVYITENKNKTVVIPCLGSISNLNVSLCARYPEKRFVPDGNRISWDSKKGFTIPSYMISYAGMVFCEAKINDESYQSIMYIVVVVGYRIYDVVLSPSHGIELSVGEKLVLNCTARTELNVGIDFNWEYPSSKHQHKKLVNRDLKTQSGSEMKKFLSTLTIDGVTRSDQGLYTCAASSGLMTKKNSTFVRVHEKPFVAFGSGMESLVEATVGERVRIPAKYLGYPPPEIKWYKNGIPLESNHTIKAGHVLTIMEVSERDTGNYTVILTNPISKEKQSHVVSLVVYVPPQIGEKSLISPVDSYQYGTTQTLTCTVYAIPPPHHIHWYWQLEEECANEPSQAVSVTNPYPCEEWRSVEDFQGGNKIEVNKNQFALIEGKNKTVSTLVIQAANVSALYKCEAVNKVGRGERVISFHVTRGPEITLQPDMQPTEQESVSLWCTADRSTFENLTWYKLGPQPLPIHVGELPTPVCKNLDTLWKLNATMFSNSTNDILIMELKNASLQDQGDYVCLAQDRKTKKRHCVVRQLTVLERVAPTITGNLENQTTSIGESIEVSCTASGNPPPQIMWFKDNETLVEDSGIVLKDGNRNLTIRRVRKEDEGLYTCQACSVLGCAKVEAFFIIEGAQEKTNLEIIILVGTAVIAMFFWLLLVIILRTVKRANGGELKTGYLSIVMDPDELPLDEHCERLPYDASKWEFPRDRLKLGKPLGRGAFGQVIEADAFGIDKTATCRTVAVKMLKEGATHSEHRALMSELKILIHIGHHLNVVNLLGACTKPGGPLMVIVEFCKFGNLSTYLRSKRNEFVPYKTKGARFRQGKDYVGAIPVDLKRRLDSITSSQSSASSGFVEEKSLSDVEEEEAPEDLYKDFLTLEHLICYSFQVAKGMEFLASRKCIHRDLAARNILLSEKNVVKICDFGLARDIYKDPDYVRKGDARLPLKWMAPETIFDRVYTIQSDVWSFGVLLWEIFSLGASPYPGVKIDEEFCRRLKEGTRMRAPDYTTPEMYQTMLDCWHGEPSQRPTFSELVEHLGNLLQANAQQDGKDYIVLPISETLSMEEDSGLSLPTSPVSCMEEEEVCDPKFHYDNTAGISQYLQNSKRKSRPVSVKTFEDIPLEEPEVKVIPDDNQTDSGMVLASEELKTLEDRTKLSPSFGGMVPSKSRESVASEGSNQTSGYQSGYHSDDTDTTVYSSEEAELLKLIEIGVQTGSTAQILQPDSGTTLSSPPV

[9] = target: Serine/threonine-protein kinase PLK1 (Homo sapiens, UniProt P53350); test: Inhibition of PLK
Sequence of Serine/threonine-protein kinase PLK1 (P53350 whole entry): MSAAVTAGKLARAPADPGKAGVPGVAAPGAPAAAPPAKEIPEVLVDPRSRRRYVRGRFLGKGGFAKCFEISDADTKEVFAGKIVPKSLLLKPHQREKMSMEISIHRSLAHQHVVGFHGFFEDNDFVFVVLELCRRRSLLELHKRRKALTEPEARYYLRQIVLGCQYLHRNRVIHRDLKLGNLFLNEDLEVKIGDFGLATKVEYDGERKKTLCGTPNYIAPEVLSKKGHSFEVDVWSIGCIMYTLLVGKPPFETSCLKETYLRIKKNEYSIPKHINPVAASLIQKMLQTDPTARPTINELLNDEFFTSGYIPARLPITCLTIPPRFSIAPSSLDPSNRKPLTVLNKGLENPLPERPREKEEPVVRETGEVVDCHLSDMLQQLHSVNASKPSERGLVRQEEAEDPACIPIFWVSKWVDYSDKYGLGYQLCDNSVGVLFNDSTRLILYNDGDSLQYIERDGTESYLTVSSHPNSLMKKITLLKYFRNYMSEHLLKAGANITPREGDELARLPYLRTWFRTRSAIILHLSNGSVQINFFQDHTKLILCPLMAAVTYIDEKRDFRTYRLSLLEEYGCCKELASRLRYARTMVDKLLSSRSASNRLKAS

[10] = target: T5, Serine/threonine-protein kinase Chk1 (Homo sapiens, UniProt O14757); test: Inhibition of CHK1
T5 sequence (O14757 whole entry): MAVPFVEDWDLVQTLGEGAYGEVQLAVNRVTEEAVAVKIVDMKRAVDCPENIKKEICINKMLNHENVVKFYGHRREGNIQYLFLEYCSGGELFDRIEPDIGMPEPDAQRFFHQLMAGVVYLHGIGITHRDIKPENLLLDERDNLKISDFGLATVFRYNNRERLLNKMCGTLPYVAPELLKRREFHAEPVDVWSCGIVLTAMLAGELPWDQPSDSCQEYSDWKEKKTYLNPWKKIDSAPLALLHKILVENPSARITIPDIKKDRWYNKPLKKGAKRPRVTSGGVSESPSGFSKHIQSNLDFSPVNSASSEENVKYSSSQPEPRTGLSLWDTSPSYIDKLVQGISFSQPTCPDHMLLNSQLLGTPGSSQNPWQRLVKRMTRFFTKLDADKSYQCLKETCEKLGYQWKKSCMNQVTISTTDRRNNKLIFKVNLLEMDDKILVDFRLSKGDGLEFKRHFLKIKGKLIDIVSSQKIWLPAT

[11] = Inhibition of JNK
[12] = Inhibition of PKA
[13] = Lipophilicity, Log D of compound at pH 7.4; assay type: physicochemical; conditions: buffer
[14] = Aqueous solubility of compound at pH 7.4; assay type: physicochemical
Plasma = test: Protein binding in Han Wistar rat plasma assessed as free drug; assay type: ADME, cell-free
[15] = Bioavailability in Han Wistar rat at 5 umol/kg, po; assay type: ADME, organism-based; conditions: in vivo
[16] = Volume of distribution at steady state in Han Wistar rat at 5 umol/kg, po or 0.5 umol/kg, iv; assay type: ADME, organism-based; conditions: in vivo, read-out: Vdss
[17] = Half life in Han Wistar rat at 5 umol/kg, po; assay type: ADME, organism-based; conditions: in vivo
[18] = AUC in Han Wistar rat at 5 umol/kg, po; assay type: ADME, organism-based; conditions: plasma
[19] = Clearance in Han Wistar rat at 5 umol/kg, po or 0.5 umol/kg, iv; assay type: ADME, organism-based; conditions: in vivo
[20] = Inhibition of FGF

Compound: Clc1cccc(Nc2nccc(Nc3c(Cl)ccc4c3OCO4)n2)c1
- IC50 (Ephrin type-B receptor 4): 1.33 µM

Compound: Clc1ccccc1Nc1nccc(Nc2c(Cl)ccc3c2OCO3)n1
- IC50 (Ephrin type-B receptor 4): 11.3 µM

Compound: Fc1ccccc1Nc1nccc(Nc2c(Cl)ccc3c2OCO3)n1
- IC50 (Ephrin type-B receptor 4): 5 µM

Compound: CS(=O)(=O)c1cccc(Nc2nccc(Nc3c(Cl)ccc4c3OCO4)n2)c1
- IC50 (Ephrin type-B receptor 2): 0.05 µM
- IC50 [1]: < 0.1 µM
- IC50 [2]: 10.7 µM
- IC50 [3]: 17.6 µM
- IC50 (Focal adhesion kinase 1): 19.7 µM
- IC50 [4]: 20.5 µM
- IC50 [5]: 27.1 µM
- IC50 [6]: > 30 µM
- IC50 [7]: > 30 µM
- IC50 [8]: > 30 µM
- IC50 [9]: > 30 µM
- IC50 [10]: > 30 µM
- IC50 [11]: > 30 µM
- IC50 [12]: > 30 µM
- logD [13]: 3.13
- solubility [14]: 30 µM (≈ 12.6 µg/mL)
- Fu (Plasma): 0.74%
- bioavailability [15]: 30%
- Vd [16]: 0.5 L/kg
- half-life [17]: 5.3 h
- AUC [18]: 4 µM·h
- clearance [19]: 6.1 mL/min/kg
- IC50 [20]: > 30 µM

Compound: COc1cc(Nc2cc(Nc3c(Cl)ccc4c3OCO4)ncn2)cc(OC)c1OC
- IC50 (Ephrin type-B receptor 4): 2.54 µM

Compound: N#Cc1ccccc1Nc1nccc(Nc2c(Cl)ccc3c2OCO3)n1
- IC50 (Ephrin type-B receptor 4): 20.5 µM

Compound: CS(=O)(=O)c1ccc(Nc2nccc(Nc3c(Cl)ccc4c3OCO4)n2)cc1
- IC50 (Ephrin type-B receptor 4): 0.63 µM

Compound: Cc1ccc(Nc2nccc(Nc3c(Cl)ccc4c3OCO4)n2)cc1
- IC50 (Ephrin type-B receptor 4): 1.6 µM

Compound: NS(=O)(=O)c1ccccc1Nc1nccc(Nc2c(Cl)ccc3c2OCO3)n1
- IC50 (Ephrin type-B receptor 4): 35.5 µM

Compound: Clc1ccc2c(c1Nc1ccnc(Nc3ccccc3N3CCOCC3)n1)OCO2
- IC50 (Ephrin type-B receptor 4): 7.85 µM

Compound: Clc1ccc(Nc2nccc(Nc3c(Cl)ccc4c3OCO4)n2)cc1
- IC50 (Ephrin type-B receptor 4): 6 µM

Compound: Clc1ccc2c(c1Nc1ccnc(Nc3ccccc3)n1)OCO2
- IC50 (Ephrin type-B receptor 4): 1.55 µM
